These results are taken from patent US20240287082A1, “NEW BENZODIAZEPINE DERIVATIVES AS GABA A GAMMA1 PAM” (Hoffmann-La Roche Inc., priority 2021, published 2024).

Experiment [1] addresses human GABAA α5β2γ1 receptor (Homo sapiens (Human), UniProt P31644+Q8N1C3). Kind of experiment: Radioligand binding assay, competition for [3H]RO7239181, γ1-containing GABAA subtype α5β2γ1. Here is the method: The affinity of compounds at GABAA γ1 subunit-containing receptors was measured by competition for [^3H]RO7239181 (67.3 Ci/mmol; Roche) binding to membranes from HEK293F cells (ThermoFisher R^79007) expressing human (transiently transfected) receptors of composition α5β2γ1, α2β2γ1, α1β2γ1. For better protein expression of the α2 subunit-containing receptors, the 28 amino acid long signal peptide (Met1 to Ala28)of the human GABAA α2 subunit was substituted by the 31 amino acid long signal peptide (Met1 to Ser31) of human GABAA α5 subunit.
(§1) Harvested pellets from HEK293F cells expressing the different GABAA receptor subtypes were resuspended in Mannitol Buffer pH 7.2-7.4 (Mannitol 0.29M, Triethylamine 10 mM, Acetic acid 10 mM, EDTA 1 mM plus protease inhibitors (20 tablets Complete, Roche Diagnostics Cat. No. 05 056 489 001 per liter)), washed two times and then resuspended at 1:10 to 1:15 dilution in the same buffer. Cell disruption was performed by stirring the suspension in a Parr vessel #4637 at 435 psi for 15 minutes, and then the suspensions were centrifuged at 1000×g for 15 minutes at 4° C. (Beckman Avanti J-HC: rotor JS-4.2). The supernatant (S1) was transferred in a 21 Schott flask and the pellet (P1) was resuspended with Mannitol Buffer up to 175 ml. The resuspended pellet was transferred into a 250 ml Corning centrifugal beaker and centrifuged at 1500×g for 10 minutes at 4° C. (Beckman Avanti J-HC: rotor JS-4.2). The supernatant (S1) was then transferred in the 21 Schott flask and the pellet was discarded. The supernatants (S1) were centrifuged in 500 ml Beckman polypropylene centrifugal beaker at 15 000×g for 30 minutes at 4° C. (Beckman Avanti J-20 XP: rotor JLA-10.500). The pellet (P2) was resuspended with Mannitol Buffer 1:1 and frozen at −80° C. The supernatant (S2) was centrifuged in 100 ml Beckman polypropylene centrifugal tubes at 48000×g for 50 minutes at 4° C. (Beckman Avanti J-20 XP: rotor JA-18). The supernatant (S3) was discarded and the pellet (P3) was resuspended with 1:1 Mannitol Buffer. The P2 and P3 protein concentration was determined with the BIORAD Standard assay method with bovine serum albumin as standard and measured on the NANO-Drop 1000. The membrane suspension was aliquots (500 μl per tube) and stored at −80° C. until required.
(§2) Membrane homogenates were resuspended and polytronised (Polytron PT1200E Kinematica AG) in Potassium Phosphate 10 mM, KCl 100 mM binding buffer at pH 7.4 to a final assay concentration determined with a previous experiment.
Radioligand binding assays were carried out in a volume of 200 μL (96-well plates) which contained 100 μL of cell membranes, [3H]RO7239181 at a concentration of 1.5 nM (α5β2γ1) or 20-30 nM (α1β2γ1, α2β2γ1) and the test compound in the range of [0.3-1000]×10^−9 M. Nonspecific binding was defined by 10×10^−6 (α5β2γ1) and 30×10^−6 M RO7239181 and typically represented less than 5% (α5β2γ1) and less than 20% (α1β2γ1, α2β2γ1) of the total binding. Assays were incubated to equilibrium for 1 hour at 4° C. and then, membranes were filtered onto unifilter (96-well white microplate with bonded GF/C filters preincubated 20-50 minutes in 0.3% Polyethylenimine) with a Filtermate 196 harvester (Packard BioScience) and washed 4 times with cold Potassium Phosphate 10 mM pH 7.4, KCl 100 mM binding buffer. After anhydrousing, filter-retained radioactivity was detected by liquid scintillation counting. Ki values were calculated using Excel-Fit (Microsoft) and are the means of two determinations.

The target in experiment [2] is human GABAA α2β2γ1 receptor (Homo sapiens (Human), UniProt P47869+Q8N1C3). Kind of experiment: Radioligand binding assay, competition for [3H]RO7239181, γ1-containing GABAA subtype α2β2γ1. The note with it: for γ2/γ1 Selectivity Ratio: Ki α1β3γ2 (nM)/Ki α2β2γ1 (nM); for LogSel: Log[Ki α1β3γ2 (nM)/Ki α2β2γ1 (nM)]. Here is the method: (§3) The affinity of compounds at GABAA γ1 subunit-containing receptors was measured by competition for [^3H]RO7239181 (67.3 Ci/mmol; Roche) binding to membranes from HEK293F cells (ThermoFisher R^79007) expressing human (transiently transfected) receptors of composition α5β2γ1, α2β2γ1, α1β2γ1.
as §1, §2
(§4) Assays were incubated to equilibrium for 1 hour at 4° C. and then, membranes were filtered onto unifilter (96-well white microplate with bonded GF/C filters preincubated 20-50 minutes in 0.3% Polyethylenimine) with a Filtermate 196 harvester (Packard BioScience) and washed 4 times with cold Potassium Phosphate 10 mM pH 7.4, KCl 100 mM binding buffer. After anhydrousing, filter-retained radioactivity was detected by liquid scintillation counting. Ki values were calculated using Excel-Fit (Microsoft) and are the means of two determinations.

Experiment [3] deals with human GABAA α1β2γ1 receptor (Homo sapiens (Human), UniProt P14867+Q8N1C3). Nature of the experiment: Radioligand binding assay, competition for [3H]RO7239181, γ1-containing GABAA subtype α1β2γ1. The note with it: membranes of HEK293F cells, [3H]RO7239181 20-30 nM, mean of two determinations. On the procedure:
as §3, §1, §2, §4

The target of experiment [4] is human GABAA α1β3γ2 receptor (Homo sapiens (Human), UniProt P14867+P18507). Nature of the experiment: Radioligand binding assay, competition for [3H]Flumazenil, γ2-containing GABAA subtype α1β3γ2. On the procedure: The affinity of compounds at GABAA γ2 subunit-containing receptors was measured by competition for [^3H]Flumazenil (81.1 Ci/mmol; Roche) binding to HEK293F cells expressing human (transiently transfected) receptors of composition α1β3γ2.
Harvested pellets from HEK293F cells expressing the different GABAA γ2 receptor subtypes were resuspended in Mannitol Buffer pH 7.2-7.4 and processed as described above for the cells expressing the GABAA γ1 subunit-containing receptors.
Assays were incubated to equilibrium for 1 hour at 4° C. and harvested onto GF/C uni-filters (Packard) by filtration using a Packard harvester and washing with ice-cold wash buffer (50 mM Tris; pH 7.5). After anhydrousing, filter-retained radioactivity was detected by liquid scintillation counting. Ki values were calculated using Excel-Fit (Microsoft) and are the means of two determinations.

In experiment [5] the target is h-GABA-A α2β2γ1 (Homo sapiens (Human), UniProt P47869+Q8N1C3). Kind of experiment: Two-electrode voltage clamp electrophysiology in Xenopus oocytes expressing GABAA receptors, modulation of GABA EC20 current. The note with it: for Efficacy (GABA) %: % modulation of GABA EC20 = 100*(Fold increase−1), compound at 30-fold Ki α2β2γ1; for Fold increase h-GABA-A α2β2γ1 oocyte @ 30-fold Ki: Xenopus oocytes, GABA EC20, test compound at approx. 30-fold its Ki α2β2γ1. The class given is cell-based. On the procedure: Xenopus laevis oocytes at maturation stages V-VI were used for the expression of cloned mRNA encoding GABAA receptor subunits. Oocytes ready for RNA micro-injection were bought from Ecocyte, Castrop-Rauxel, Germany and stored in modified Barth's medium (composition in mM: NaCl 88, KCl 1, NaHCO3 2.4, HEPES 10, MgSO4 0.82, CaNO3 0.33, CaCl2 0.33, pH=7.5) at 20° C. until the experiment.
Oocytes were plated in 96-well plates for microinjection using the Roboinject automated instrument (MultiChannelSystems, Reutlingen, Germany). Approximately 50 nL of an aqueous solution containing the RNA transcripts for the subunits of the desired GABAA receptor subtype was injected into each oocyte. […] Oocytes were kept in modified Barth's medium (composition in mM: NaCl 88, KCl 1, NaHCO3 […], HEPES 10, MgSO4 0.82, CaNO3 0.33, CaCl2 0.33, pH=7.5) at 20° C. until the experiment.
Electrophysiological experiments were performed using the Roboocyte instrument (MultiChannelSystems, Reutlingen, Germany) on days 3 to 5 after the micro-injection of mRNA. During the experiment the oocytes were constantly superfused by a solution containing (in mM) NaCl 90, KCl 1, HEPES 5, MgCl2 1, CaCl2 1 (pH 7.4). Oocytes were impaled by two glass microelectrodes (resistance: 0.5-0.8 MΩ) which were filled with a solution containing KCl 1M+K-acetate 1.5 M and voltage-clamped to −80 mV. The recordings were performed at room temperature using the Roboocyte two-electrode voltage clamp system (Multichannelsystem). After an initial equilibration period of 1.5 min GABA was added for 1.5 min at a concentration evoking approximately 20% of a maximal current response (EC20). After another rest interval of 2.5 min GABA was again added evoking a response of similar amplitude and shape. […] Current traces were recorded at a digitization rate of 10 Hz during and shortly before and after the GABA application.
Each compound and concentration was tested on at least 3 oocytes. Different oocytes were used for different compound concentrations.
For the analysis, the digitized current traces of the first and second GABA response were superimposed and, if necessary, rescaled to equal maximal amplitudes. The ratio between the two responses during the time interval of test compound application was calculated point by point. The extremum of the resulting “ratio trace” was taken as the efficacy (“Fold increase”) of the compound expressed as “% modulation of GABA EC20” (100*(Fold increase−1)).
Background: In two-electrode clamp one electrode senses voltage and the other passes current.

The mark [6] stands for this setting: read-out: Ki h-GABAA α2β2γ1, Table 2, membranes of HEK293F cells, [3H]RO7239181.

Where two headings read alike, the source gives them in different places.

Turning to `C[C@@H]1N=C(c2c(F)cccc2F)c2c(ccc(C(F)(F)F)c2Cl)-n2cc(CO)c(=O)nc21` [Example 29, (5S)-8-chloro-7-(2,6-difluorophenyl)-2-(hydroxymethyl)-5-methyl-9-(trifluoromethyl)-5H-pyrimido[1,2-a][1,4]benzodiazepin-3-one], the inhibitory constant (Ki) worked out at 11.2 nM in experiment [1] (membranes of HEK293F cells, [3H]RO7239181 1.5 nM, mean of two determinations, read-out: Ki h-GABAA α5β2γ1); 44.6 nM in experiment [2] (Table 2, membranes of HEK293F cells, [3H]RO7239181, read-out: Ki h-GABAA α2β2γ1); 44.6 nM in experiment [2] (membranes of HEK293F cells, [3H]RO7239181 20-30 nM, mean of two determinations, read-out: Ki h-GABAA α2β2γ1); 113 nM in experiment [3]; 13100 nM in experiment [4] (HEK293F cell membranes, [3H]Flumazenil 1 nM, mean of two determinations, read-out: Ki h-GABAA α1β3γ2). Also, in experiment [2], the “γ2/γ1 Selectivity Ratio” value was 292.6. In experiment [2], this molecule had a LogSel of 2.47.

Take `O=c1ccn2c(n1)CN=C(c1c(F)cccc1F)c1c-2ccc(Br)c1Cl` [Example 12, 9-bromo-8-chloro-7-(2,6-difluorophenyl)-5H-pyrimido[1,2-a][1,4]benzodiazepin-3-one]: the affinity in experiment [1] corresponds to a Ki of 0.7 nM. Further, in experiment [2], the Ki came to 4.6 nM, the “γ2/γ1 Selectivity Ratio” value is recorded as 70.5 and the LogSel was found to be 1.85. For the same molecule, the Ki in experiment [2] (setting [6]) was 4.6 nM. This molecule registered a Ki in experiment [4] of 322 nM. Besides, in experiment [5], the “Efficacy (GABA) %” value was found to be 65% and the “Fold increase h-GABA-A α2β2γ1 oocyte @ 30-fold Ki” value came out at 1.65.

For `O=c1nc2n(cc1Br)-c1ccc(Br)c(Cl)c1C(c1c(F)cccc1F)=NC2` [Example 15, 2,9-dibromo-8-chloro-7-(2,6-difluorophenyl)-5H-pyrimido[1,2-a][1,4]benzodiazepin-3-one], the Ki in experiment [1] was found to be 0.8 nM. Further, in experiment [2], the affinity, expressed as Ki, was 8 nM; the “γ2/γ1 Selectivity Ratio” value is listed as 244.8; the LogSel is listed as 2.39. In experiment [2] (setting [6]), the Ki was determined as 8 nM. This molecule returned a Ki in experiment [4] of 1970 nM. Also, in experiment [5], the “Efficacy (GABA) %” value is recorded as 69% and the “Fold increase h-GABA-A α2β2γ1 oocyte @ 30-fold Ki” value was 1.69.

`O=c1nc2n(cc1Br)-c1ccc(Cl)c(Cl)c1C(c1c(F)cccc1F)=NC2` [Example 5, 2-bromo-8,9-dichloro-7-(2,6-difluorophenyl)-5H-pyrimido[1,2-a][1,4]benzodiazepin-3-one] returned an inhibitory constant (Ki) in experiment [1] of 1.4 nM. In experiment [2], the Ki is 10.6 nM, the “γ2/γ1 Selectivity Ratio” value came to 190.6 and the LogSel was found to be 2.28. For the same molecule, the inhibitory constant (Ki) in experiment [2] (setting [6]) worked out at 10.6 nM. In experiment [4], this molecule had a Ki of 2020 nM. Further, in experiment [5], the “Efficacy (GABA) %” value is given as 78% and the “Fold increase h-GABA-A α2β2γ1 oocyte @ 30-fold Ki” value is given as 1.78.

`C[C@@H]1N=C(c2c(F)cccc2F)c2c(ccc(Cl)c2Br)-n2cc(Br)c(=O)nc21` [Example 23, (5S)-2,8-dibromo-9-chloro-7-(2,6-difluorophenyl)-5-methyl-5H-pyrimido[1,2-a][1,4]benzodiazepin-3-one]: in experiment [1], the affinity, expressed as Ki, was 6.8 nM. For the same molecule, in experiment [2], the Ki was 74.1 nM, the “γ2/γ1 Selectivity Ratio” value came out at 40.5 and the LogSel was determined as 1.61. For the same molecule, in experiment [2] (setting [6]), the Ki amounted to 74.1 nM. In experiment [4], this molecule displayed a Ki of 3000 nM. Further, in experiment [5], the “Efficacy (GABA) %” value stood at 107% and the “Fold increase h-GABA-A α2β2γ1 oocyte @ 30-fold Ki” value came to 2.07.

`C[C@@H]1N=C(c2c(F)cccc2F)c2c(ccc(Cl)c2Br)-n2ccc(=O)nc21` [Example 6, (5S)-8-bromo-9-chloro-7-(2,6-difluorophenyl)-5-methyl-5H-pyrimido[1,2-a][1,4]benzodiazepin-3-one] had a Ki in experiment [1] of 4.8 nM. In experiment [2], the inhibition constant (Ki) is 49.9 nM, the “γ2/γ1 Selectivity Ratio” value turned out to be 35.7 and the LogSel was determined as 1.55. Moreover, in experiment [2] (setting [6]), the Ki amounted to 49.9 nM. Further, in experiment [4], the Ki was 1780 nM. In experiment [5], the “Efficacy (GABA) %” value turned out to be 121% and the “Fold increase h-GABA-A α2β2γ1 oocyte @ 30-fold Ki” value is recorded as 2.21.

Broadly, the Ki is a dissociation constant, usually derived from enzyme kinetics or from competition with a known ligand.
